Source: patent US20050014849A1, “Antifungal phenylethylene” (priority 2001, published 2005)
≈ marks a conversion by molar mass, not a printed value.

Legend:
C. albicans (ATCC 90028) = assay: Frequency of occurrence of spontaneous mutants; type: cell-based, Candida albicans; settings: four times the broth macrodilution MIC
Experimental: (§1) Determination of the frequency of occurrence of spontaneous mutants was performed as previously described. Overnight cultures of C neoformans (ATCC 90112), C. albicans (ATCC 90028) and Trichosporon inkin (ATCC 18020) were diluted to an OD530 nm=0.3. 0.1 ml of each preparation was spread onto SDA plates containing four or eight times the broth macrodilution MIC of TMPN. The starting inoculum for each organism was also diluted and plated onto drug-free SDA plates for determination of cfu/ml. After a 48 h incubation at the appropriate temperature (see Fungal Strains section above), the number of colonies on drug-supplemented SDA was counted. The frequency of occurrence of spontaneous mutants was calculated by dividing the number of colonies on drug-containing plates by the number of colonies in the inoculum. When no colonies were visualized on drug-containing plates, the calculation was (<) 1 colony divided by the number of colonies in the inoculum.

[1] = tested on: Rhizopus oligosporus ATCC 22959; assay: Broth macrodilution MIC/MFC, filamentous fungi; type: cell-based
Experimental: (§2) Susceptibility testing of filamentous fungi was also conducted. Broth macrodilution susceptibility testing of P. lilacinus, Rhizopus spp. and Aspergillus spp. was performed in accordance with a proposed standardized procedure with slight modification. To induce conidium and sporangiospore formation, fungi were grown on PDA slants at 35° C. for 6 days (P. lilacinus, Rhizopus spp., all Aspergillus species except A. nidulans) or 3 days (A. nidulans). Fungal slants were covered with sterile 0.85% NaCl (P. lilacinus, Rhizopus spp., all Aspergillus species except A. nidulans) or 0.05% Tween 80 (A. nidulans), and suspensions were made by gently probing the colonies with the tip of a sterile Pasteur pipette. The resulting mixture of hyphal fragments and conidia or sporangiospores was withdrawn and transferred to a sterile clear microcentrifuge tube, and heavy particles were allowed to settle for 10 min. The upper homogenous suspension was transferred to a sterile microcentrifuge tube, vortexed for 15 s, adjusted spectrophotometrically, and diluted in sterile 0.165 M MOPS-buffered RPMI medium, pH 7.0, to yield final inocula ranging from 0.5-2.5×10^3 cfu/ml. Susceptibility to TMPN was then determined by broth macrodilution as described above for yeast isolates. MICs were read after 48 h The MIC was defined as the lowest concentration of TMPN that inhibited all visible growth of the test organism (optically clear).
(§3) Minimum fungicidal concentrations (MFCs) were determined by subculturing 0.1 ml from each tube with no visible growth in the MIC broth macrodilution series onto the appropriate drug-free plates (see Fungal Strains section above).

[2] = tested on: Paecilomyces lilacinus (1); assay: Broth macrodilution MIC/MFC, filamentous fungi; type: cell-based
Experimental: as §2, §3

[3] = tested on: C. uniguttulatus ATCC 66033; assay: Broth macrodilution MIC/MFC; type: cell-based, Cryptococcus uniguttulatus
Experimental: (§4) TMPN was screened against yeasts by the broth macrodilution assay according to the NCCLS [7]. Yeasts were suspended and diluted as recommended to yield final inocula ranging from 0.5-2.5×10^3 cfu/ml. Tests were performed in sterile 12 by 75 mm plastic tubes containing two-fold dilutions of TMPN in 0.165 M morpholinepropanesulfonic acid buffered RPMI 1640 medium (pH 7.0). One tube was again left drug free (but contained an equivalent volume of DMSO) for a turbidity control. Tubes were incubated without agitation at the appropriate temperature (see Fungal Strains section above). MICs were determined after 72 h for Cryptococcus and after 48 h for other yeast genera. The MIC was defined as the lowest concentration of TMPN that inhibited all visible growth of the test organism (optically clear).
as §3

[4] = tested on: C. uniguttulatus ATCC 34143; assay: Broth macrodilution MIC/MFC; type: cell-based, Cryptococcus uniguttulatus
Experimental: as §4, §3

fungal = assay: Frequency of fungal spontaneous mutations to resistance (summary); type: cell-based; settings: summary statement
Experimental: as §1

[5] = tested on: all 60 Candida spp. clinical isolates; assay: Broth macrodilution MFC/MIC ratios, combined Candida isolates; type: cell-based; settings: all 60 Candida spp. clinical isolates combined
Experimental: as §4, §3

[6] = tested on: A. niger (ASU culture collection); assay: Broth macrodilution MIC/MFC, filamentous fungi; type: cell-based, Aspergillus niger
Experimental: as §2, with “The upper homogenous suspension was transferred to a sterile microcentrifuge tube, vortexed for 15 s, adjusted spectrophotometrically, and diluted in sterile 0.165 M MOPS-buffered RPMI medium, pH 7.0, to yield final inocula ranging from 0.5-2.5×10^3 cfu/ml.” left out, “MICs were read after 48 h The MIC was defined as the lowest concentration of TMPN that inhibited all visible growth of the test organism (optically clear).” left out
as §3

[7] = tested on: C. viswanathii ATCC 22981; assay: Broth macrodilution MIC/MFC; type: cell-based, Candida viswanathii
Experimental: as §4, §3

C. utilis ATCC 9226 = assay: Broth macrodilution MIC/MFC; type: cell-based, Candida utilis
Experimental: as §4, §3

[8] = tested on: Ketoconazole-resistant C. albicans ATCC 64124; assay: Broth macrodilution MIC/MFC; type: cell-based, Candida albicans
Experimental: as §4, §3

C. albicans ATCC 60193 = assay: Broth macrodilution MIC/MFC; type: cell-based, Candida albicans
Experimental: as §4, §3

C. albicans ATCC 10231 = assay: Broth macrodilution MIC/MFC; type: cell-based, Candida albicans
Experimental: as §4, §3

[9] = tested on: Flucytosine-resistant C. albicans ATCC 32354; assay: Broth macrodilution MIC/MFC; type: cell-based, Candida albicans
Experimental: as §4, §3

C. albicans ATCC 14053 = assay: Broth macrodilution MIC/MFC; type: cell-based, Candida albicans
Experimental: as §4, §3

C. ater ATCC 14247 = assay: Broth macrodilution MIC/MFC; type: cell-based, Cryptococcus ater
Experimental: as §4, §3

A. nidulans strain FGSC4 = assay: Broth macrodilution MIC/MFC, filamentous fungi; type: cell-based, Aspergillus nidulans
Experimental: as §2, with “The upper homogenous suspension was transferred to a sterile microcentrifuge tube, vortexed for 15 s, adjusted spectrophotometrically, and diluted in sterile 0.165 M MOPS-buffered RPMI medium, pH 7.0, to yield final inocula ranging from 0.5-2.5×10^3 cfu/ml.” left out, “MICs were read after 48 h The MIC was defined as the lowest concentration of TMPN that inhibited all visible growth of the test organism (optically clear).” left out
as §3

[10] = tested on: R. nigracans (ASU culture collection); assay: Broth macrodilution MIC/MFC, filamentous fungi; type: cell-based, Rhizopus nigracans
Experimental: as §2, with “The upper homogenous suspension was transferred to a sterile microcentrifuge tube, vortexed for 15 s, adjusted spectrophotometrically, and diluted in sterile 0.165 M MOPS-buffered RPMI medium, pH 7.0, to yield final inocula ranging from 0.5-2.5×10^3 cfu/ml.” left out, “MICs were read after 48 h The MIC was defined as the lowest concentration of TMPN that inhibited all visible growth of the test organism (optically clear).” left out
as §3

Structure (SMILES): COc1cc(C=C[N+](=O)[O-])cc(OC)c1OC [TMPN, 1-(3′,4′,5′-trimethoxyphenyl)-2-nitro-ethylene]
- frequency of occurrence of single-step resistant mutants (C. albicans (ATCC 90028)): ≤ 10^−6
- MFC Range [1]: >64 µg/mL
- MIC Range [1]: 8 µg/mL (≈ 33.4 µM)
- MFC Range [2]: 64 µg/mL (≈ 268 µM)
- MIC Range [2]: 32 µg/mL (≈ 134 µM)
- MFC Range [3]: 32 µg/mL (≈ 134 µM)
- MIC Range [3]: 16 µg/mL (≈ 66.9 µM)
- MFC Range [4]: 16 µg/mL (≈ 66.9 µM)
- MIC Range [4]: 8 µg/mL (≈ 33.4 µM)
- frequency of fungal spontaneous mutations to resistance (fungal): < 10^−6
- share of isolates with MFC/MIC ratio ≦2 [5]: 47%
- share of isolates with MFC/MIC ratio ≦4 [5]: 60%
- MFC Range [6]: 64 µg/mL (≈ 268 µM)
- MIC Range [6]: 16 µg/mL (≈ 66.9 µM)
- MFC Range [7]: >64 µg/mL
- MIC Range [7]: 32 µg/mL (≈ 134 µM)
- MFC Range (C. utilis ATCC 9226): 8 µg/mL (≈ 33.4 µM)
- MIC Range (C. utilis ATCC 9226): 4 µg/mL (≈ 16.7 µM)
- MFC Range [8]: 32 µg/mL (≈ 134 µM)
- MIC Range [8]: 16 µg/mL (≈ 66.9 µM)
- MFC Range (C. albicans ATCC 60193): 16 µg/mL (≈ 66.9 µM)
- MIC Range (C. albicans ATCC 60193): 16 µg/mL (≈ 66.9 µM)
- MFC Range (C. albicans ATCC 10231): 8 µg/mL (≈ 33.4 µM)
- MIC Range (C. albicans ATCC 10231): 8 µg/mL (≈ 33.4 µM)
- MFC Range [9]: 16 µg/mL (≈ 66.9 µM)
- MIC Range [9]: 16 µg/mL (≈ 66.9 µM)
- MFC Range (C. albicans ATCC 14053): 16 µg/mL (≈ 66.9 µM)
- MIC Range (C. albicans ATCC 14053): 16 µg/mL (≈ 66.9 µM)
- MFC Range (C. ater ATCC 14247): 16 µg/mL (≈ 66.9 µM)
- MIC Range (C. ater ATCC 14247): 8 µg/mL (≈ 33.4 µM)
- MFC Range (A. nidulans strain FGSC4): 16 µg/mL (≈ 66.9 µM)
- MIC Range (A. nidulans strain FGSC4): 8 µg/mL (≈ 33.4 µM)
- MFC Range [10]: >64 µg/mL
- MIC Range [10]: 32 µg/mL (≈ 134 µM)
